The subject of series [1] is 4T1 cells. The experiment in a line: Cytokine and chemokine gene expression in 4T1 cells in vitro. The format is cell-based, mouse. Particulars: Figure 8A.
Series [2] has as its system macrophage infiltration into 4T1 tumors. Nature of the series: Immunofluorescence of macrophages in 4T1 tumors (F4/80, Arg1). It counts as in vivo, mouse. The settings on record: Figure 8B. How it is done:
Inhibition of PD-L1 and CD80/CD86 is directly achieved through the immune checkpoint blockade of their receptors using anti-CTLA-4 and anti-PD-1 antibodies.[69],[70]
Primary tumor tissues were fixed using 4% paraformaldehyde and subsequently dehydrated in sucrose solutions ranging from 10 to 30% for approximately 24 h each. The tissues were then embedded in base molds (Fisherbrand—#22363553) containing an optimal cutting temperature (OCT) compound (Fisher Healthcare—#4585). The tissue blocks were placed immediately on dry ice until the OCT compound solidified, and then they were stored at −80 °C. Prior to IF staining, sections of 5–10 μm were obtained using a Leica CM3050 S cryostat and SuperFrost Plus slides (Fisherbrand—#1255015). The tumor sections were then incubated with blocking buffer [phosphate-buffered saline containing 2% bovine serum albumin, 0.3% Triton X-100, 1% FBS, and 10% goat serum] for 1 h at RT. To detect macrophages in the TME, the sections were incubated with a pan-macrophage rat monoclonal antibody F4/80 (Abcam—#6640) diluted in blocking buffer overnight at 4 °C. Sixteen hours later, tissues were washed 3 times with 100 mM Tris–HCl and then incubated with a secondary goat antirat antibody (Invitrogen—#A11081) for 1 h at RT. […] Subsequently, 4′,6-diamidino-2-phenylindole (DAPI; Invitrogen—#D3571) was used to counterstain the nuclei for 5 min at RT. Finally, the slides were mounted using Fluoromount-G medium (Invitrogen—#00495802) and coverslips (Fisher Scientific—#12545E) and imaged with a Zeiss LSM 710 confocal microscope with ×20 objective. Quantification was carried out by QuPath software (version 0.3.2). F4/80+ macrophages and F4/80+ Arg1+ M2 macrophages were classified based on their fluorescence signal.

The test system of series [3] is 4T1 tumors. Nature of the series: 4T1 TNBC model in vivo (primary tumor and lung metastases). Further details: species or system mouse. The settings on record: 4T1 model; for #Surface metastases (lung): 1,25D 0.25 μg/kg, SAHA 80 mg/kg, AM-193 0.2 mg/kg, ZG-126 high 5.0 mg/kg, vehicle 166. How it is done:
As 4T1 cells are aggressively metastatic, we can also assess the antimetastatic activity in the same experiment. All treatments were well tolerated, and, as in the B16-F10 model, none induced weight loss or other signs of stress over the course of the experiment (Figure 7A). Treatments reduced the primary tumor burden to varying degrees.
The antimetastatic activity was determined by counting the number of surface lung metastases of duplicate samples using a stereomicroscope. […] This degree of efficacy is remarkable, as in previous experiments, DK-406 reduced the metastatic burden by ∼2-fold.[30]
(§1) Finally, mice were sacrificed, and lungs of 4T1-bearing mice were removed to evaluate the efficiency of treatments on lung metastases.

In series [4] the test system is MDA-MB-231 TNBC cells. Nature of the series: RealTime-Glo cell viability assay, MDA-MB-231 cells. It counts as cell-based, human. Particulars: for cytotoxicity: 100 nM, alone or in combination; for IC50: Homo sapiens, RealTime-Glo, 24 h, read-out: IC50 (cytotoxicity).
Series [5] deals with 4T1 cells. Nature of the series: RealTime-Glo cell viability assay, 4T1 cells. The settings on record: for IC50: Mus musculus, 4T1, 24 h, read-out: IC50 (cytotoxicity).
In series [6] the test system is hyperacetylation of tubulin, H3K9 and H3K27. The experiment in a line: Western blot of tubulin and histone H3 hyperacetylation in 4T1 cells. It counts as cell-based, mouse. Particulars: hybrids 10 μM, SAHA 100 nM, 6 h. Here is the method:
The potential for compounds as HDACi’s can be rapidly tested in cells in culture by monitoring the hyperacetylation of histone H3 and tubulin. H3 acetylation is controlled by multiple class I enzymes, and the class IIb enzyme HDAC6 regulates tubulin acetylation.[36]−[39] […] (Figure 4A).
Figure 4 Evidence for HDAC inhibition in 4T1 and 4TO7 TNBC cells. Western blots and quantification of triplicate biological replicates analyzing the effects of 1,25D (100 nM), SAHA (100 nM), and hybrids (10 μM) on hyperacetylation of tubulin (A,D), H3K9 (B,E), and H3K27 (C,F) in 4T1 (A–C) and 4TO7 cells (D–F).
After 6 h treatments, 4T1, 4T07, or B16-F10 cells were solubilized in lysis buffer (20 mM Tris, pH 8, 150 mM NaCl, 1% Triton X-100, 3.5 mM SDS, and 13 mM deoxycholic acid), and proteins were separated on a 4–15% Tris/glycine/SDS gel (Bio-Rad). Then, the proteins were transferred to a nitrocellulose membrane, followed by blocking in 5% skim milk in Tris-buffered saline (TBS, 1×) solution. After blocking, the membranes were incubated overnight at 4 °C with the primary antibodies against acetylated tubulin (Sigma-Aldrich—#T7451), tubulin (Sigma-Aldrich—#T9026), acetyl-histone H3(Lys9) (Merck Millipore—#07-352), acetyl-histone H3 (Lys27) (Abcam—#ab4729), total histone H3 (Cell Signaling Technology (CST)—#3638), and GAPDH (Abcam—#ab8245). Then, the membranes were incubated with antimouse (CST—#7076) or antirabbit (CST—#7074) IgG HRP-linked secondary antibodies at recommended concentrations. Finally, signals were detected using Clarity ECL substrates (Bio-Rad) and a ChemiDoc Imaging System. Changes in protein levels were quantified relative to control using Image Lab software (version 6.0.1) after normalization to GAPDH. Western blot experiments were carried out three times.

Series [7] can be described thus: in vivo. The settings on record: BALB/c, mouse, ip.
Series [8] concerns hyperacetylation of tubulin, H3K9 and H3K27. Nature of the series: Western blot of tubulin and histone H3 hyperacetylation in B16-F10 cells. The settings on record: SAHA 100 nM. It counts as cell-based, mouse. An excerpt: B16-F10 cells are responsive to 1,25D analogues[45] and HDACi[46],[47] and are therefore widely used in preclinical studies of melanoma solid tumor growth and metastases.[48] Although curable when treated early, melanoma is fatal when invasive. The American Cancer Society projected 97,610 new invasive melanoma cases in the US in 2023 and 7990 deaths. Current treatment options include chemotherapy, surgery, immunotherapy, or single agents targeting mutated genes such as B-RAF or C-KIT.[49]
After 6 h treatments, 4T1, 4T07, or B16-F10 cells were solubilized in lysis buffer (20 mM Tris, pH 8, 150 mM NaCl, 1% Triton X-100, 3.5 mM SDS, and 13 mM deoxycholic acid), and proteins were separated on a 4–15% Tris/glycine/SDS gel (Bio-Rad). Then, the proteins were transferred to a nitrocellulose membrane, followed by blocking in 5% skim milk in Tris-buffered saline (TBS, 1×) solution. […] Finally, signals were detected using Clarity ECL substrates (Bio-Rad) and a ChemiDoc Imaging System. Changes in protein levels were quantified relative to control using Image Lab software (version 6.0.1) after normalization to GAPDH. […]
Figure S2. […] Quantification of the analyses of hyperacetylation in B16-F10 cells of tubulin, H3K9 and H3K27. […]
Background: In western blotting, separated proteins are transferred to a membrane and probed.

Series [9] in a line: Solubility. The format is physicochemical.
In series [10] the test system is 4T1 tumors. Also on record: method as in PMID 1540948. The settings on record: 4T1 model, previous experiments ref 30; cited from earlier work.
The target of series [11] is T1, VDR (Mus musculus, UniProt P48281).
T1 sequence (P48281 1-422): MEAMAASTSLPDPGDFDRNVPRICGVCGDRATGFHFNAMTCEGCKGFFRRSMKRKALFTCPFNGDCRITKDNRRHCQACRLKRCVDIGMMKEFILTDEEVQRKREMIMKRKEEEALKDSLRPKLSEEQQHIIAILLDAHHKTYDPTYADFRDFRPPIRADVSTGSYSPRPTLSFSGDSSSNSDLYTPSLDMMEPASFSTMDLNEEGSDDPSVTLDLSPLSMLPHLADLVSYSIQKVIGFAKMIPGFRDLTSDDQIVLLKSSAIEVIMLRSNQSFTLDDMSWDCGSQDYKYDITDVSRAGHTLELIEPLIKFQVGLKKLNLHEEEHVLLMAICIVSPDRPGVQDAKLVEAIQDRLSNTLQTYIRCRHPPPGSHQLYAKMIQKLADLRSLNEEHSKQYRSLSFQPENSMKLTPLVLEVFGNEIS
The experiment in a line: Cyp24a1 gene induction (VDR agonism) in 4T1 cells. The format is cell-based. Also on record: endogenous in cells. Particulars: Figure 2A. Here is the method: We first examined the effect of the modified structures on solubility. […] The bifunctionality of ZG compounds was then analyzed in a battery of assays. VDR agonism was determined by evaluating the induction of the Cyp24a1 gene. Cyp24a1 encodes the enzyme that initiates the catabolic degradation of 1,25D in a negative-feedback loop, and its gene transcription is exquisitely sensitive to the presence of the agonist-bound VDR. Agonism was assessed initially in mouse 4T1 cells and in related 4TO7 TNBC cells (Figure 2A,B). […] Apparent potencies were lower than those of DK-406 and AM-193.
RNA extraction was performed with the FavorPrep tissue total RNA mini kit (FAVORGEN Biotech Corporation FATRK 001) as per manufacturer’s instructions. cDNA was obtained from 1 μg of RNA using 5× All-in-One RT MasterMix (Applied Biological Materials (abm) Inc. G485) and diluted 5 times. qPCR was performed with BrightGreen 2× q-PCR MasterMix (abm MasterMix-LR-XL) on a Roche LightCycler 96 system. Expression of targeted genes was normalized to 18 s.

The subject of series [12] is B16-F10 tumors. Nature of the series: B16-F10 melanoma model in vivo. Further details: species or system mouse. Particulars: C57BL/6 mice; ZG-126 5 mg/kg, AM-193 0.2 mg/kg, 1,25D 0.25 μg/kg, SAHA 80 mg/kg, gemcitabine 50 mg/kg. Here is the method: We were then interested in comparing the efficacy of ZG compounds and other hybrids in tumor models in vivo. We focused initially on the B16-F10 melanoma which is syngeneic with C57BL/6 mice. The efficacy of ZG-126 in vivo in this model was tested in two experiments. […] In a second experiment, we compared the antitumor efficacy of hybrids at ∼0.5 MTD doses. […] All treatments were well tolerated, and body weights were unaffected (Figure 6C).
as §1

In brackets after ≈: the same amount, converted by molar mass.

Consider 7 compounds from publication PMC11249012 (Journal of Medicinal Chemistry, 2024).

Regarding `C=C1/C(=C\C=C2/CCC[C@]3(C)[C@@H]([C@H](C)CCCC(C)(C)O)CC[C@@H]23)C[C@@H](O)C[C@@H]1O` [1,25D, 1,25-dihydroxyvitamin D], in series [1], the “expression of Ccl2, Ccl5, Ccl20, and Cxcl10” value was “inhibited”; the “expression of the gene encoding interleukin-1α” value is “induced”. For the same compound, the “total macrophage infiltration into 4T1 tumors (F4/80 staining)” value in series [2] is “significantly reduced”. In addition, the “#Surface metastases (lung)” value in series [3] is on record as 114. The cytotoxicity result in [4] is given as “did not display significant cytotoxicity”.

For the compound `CCC(CC)(c1ccc(OCCCCCC(=O)NO)cc1)c1ccc(OCC(O)C(C)(C)C)c(C)n1` (centres unmarked) [AM-193, reference compound], the IC50 in series [5] was found to be 740 nM; in series [4] it was 500 nM. For the same compound, the tubulin acetylation entry in series [6] is on record as “highly efficacious inducer of tubulin acetylation”. For the same compound, the “#Surface metastases (lung)” value in [3] came out at 89. Also, the “effect on primary tumor burden” value in series [3] (AM-193 0.2 mg/kg compared with ZG-126 5 mg/kg) was “less efficacious than the high dose of ZG-126”. In series [7], this compound gave an MTD of 0.5 mg/kg.

For `CCC(CC)(c1ccc(C(=O)NCCCCCC(=O)NO)cc1)c1ccc(OCC(O)C(C)(C)C)c(C)c1` (centres unmarked) [DK-406, reference compound], the figures for the IC50 in series [5] and in [4] were 9080 nM and 2430 nM, respectively. Moreover, in series [8], the “tubulin acetylation and histone hyperacetylation” value is “induced very high levels of tubulin acetylation and histone hyperacetylation”. The solubility in series [9] came to 4.40 µg/mL (≈ 8.35 µM). Besides, the MTD in series [7] worked out at 1 mg/kg. Also, the “reduction of metastatic burden” value in [10] was about 2 fold.

Consider `O=C(CCCCCCC(=O)Nc1ccccc1)NO` [SAHA, reference compound], for which the cytotoxicity result in series [5] (4T1 cells, 100 nM, alone or in combination) is “did not display significant cytotoxicity”; in series [4] it was “did not display significant cytotoxicity”. For the same compound, the “total macrophage infiltration into 4T1 tumors (F4/80 staining)” value in series [2] is reported as “not”. Besides, the “#Surface metastases (lung)” value in series [3] is 139.

In the case of `CCC(CC)(c1ccc(C(=O)NCCCCCC(=O)NO)cc1)c1ccc(OCC(O)C(C)(C)C)c(C)n1` (centres unmarked) [ZG-102, 4-(3-(5-(2-Hydroxy-3,3-dimethylbutoxy)-6-methylpyridin-2-yl)pentan-3-yl)-N-(6-(hydroxyamino)-6-oxohexyl)benzamide], the IC50 in series [5] stood at 55800 nM; in series [4], 2180 nM. In series [9], the solubility was 4.45 µg/mL (≈ 8.43 µM). The Cyp24a1 induction entry in series [11] is “did not appear to be a full agonist”. In series [7], this compound displayed an MTD of 10 mg/kg.

In the case of `CCC(CC)(c1ccc(C(=O)NCCCC(=O)NO)cc1)c1ccc(OCC(O)C(C)(C)C)c(C)n1` (centres unmarked) [ZG-132, 4-(3-(5-(2-Hydroxy-3,3-dimethylbutoxy)-6-methylpyridin-2-yl)pentan-3-yl)-N-(4-(hydroxyamino)-4-oxobutyl)benzamide], the IC50 was 4550 nM in [5] and 950 nM in series [4]. In series [9], this compound gave a solubility of 10.71 µg/mL (≈ 21.4 µM). In addition, the Cyp24a1 induction result in series [11] was “did not appear to be a full agonist”. In [7], this compound returned an MTD of 10 mg/kg.

Consider `Nc1ccn([C@@H]2O[C@H](CO)[C@@H](O)C2(F)F)c(=O)n1` [gemcitabine, reference compound], for which the B16-F10 tumor burden entry in [12] is “statistically significant reduction in tumor burden”.

As a reminder, the IC50 is the concentration needed to halve the response being measured. As a reminder, the solubility is the dissolved amount per volume that the medium holds. Read a low solubility as little dissolved substance.
